What was measured:
Test in all cases: Kinase profiling
Type in all cases: biochemical
ABL2 = biological target: T1, ABL2 (Homo sapiens, UniProt P42684)
T1 construct: purchased ProQinase (Freiburg, Germany)
Description: (§1) The analysis was performed by ProQinase (Freiburg, Germany).

CAMKK1 = biological target: T2, CAMKK1 (Homo sapiens, UniProt Q8N5S9)
T2 construct: purchased ProQinase (Freiburg, Germany)
Description: as §1

CDK19/CycC = biological target: T3, CDK19/CycC (Homo sapiens, UniProt Q9BWU1)
T3 construct: purchased ProQinase (Freiburg, Germany)
Description: as §1

EPHA3 = biological target: T4, EPHA3 (Homo sapiens, UniProt P29320)
T4 construct: purchased ProQinase (Freiburg, Germany)
T4 sequence (P29320 21-983): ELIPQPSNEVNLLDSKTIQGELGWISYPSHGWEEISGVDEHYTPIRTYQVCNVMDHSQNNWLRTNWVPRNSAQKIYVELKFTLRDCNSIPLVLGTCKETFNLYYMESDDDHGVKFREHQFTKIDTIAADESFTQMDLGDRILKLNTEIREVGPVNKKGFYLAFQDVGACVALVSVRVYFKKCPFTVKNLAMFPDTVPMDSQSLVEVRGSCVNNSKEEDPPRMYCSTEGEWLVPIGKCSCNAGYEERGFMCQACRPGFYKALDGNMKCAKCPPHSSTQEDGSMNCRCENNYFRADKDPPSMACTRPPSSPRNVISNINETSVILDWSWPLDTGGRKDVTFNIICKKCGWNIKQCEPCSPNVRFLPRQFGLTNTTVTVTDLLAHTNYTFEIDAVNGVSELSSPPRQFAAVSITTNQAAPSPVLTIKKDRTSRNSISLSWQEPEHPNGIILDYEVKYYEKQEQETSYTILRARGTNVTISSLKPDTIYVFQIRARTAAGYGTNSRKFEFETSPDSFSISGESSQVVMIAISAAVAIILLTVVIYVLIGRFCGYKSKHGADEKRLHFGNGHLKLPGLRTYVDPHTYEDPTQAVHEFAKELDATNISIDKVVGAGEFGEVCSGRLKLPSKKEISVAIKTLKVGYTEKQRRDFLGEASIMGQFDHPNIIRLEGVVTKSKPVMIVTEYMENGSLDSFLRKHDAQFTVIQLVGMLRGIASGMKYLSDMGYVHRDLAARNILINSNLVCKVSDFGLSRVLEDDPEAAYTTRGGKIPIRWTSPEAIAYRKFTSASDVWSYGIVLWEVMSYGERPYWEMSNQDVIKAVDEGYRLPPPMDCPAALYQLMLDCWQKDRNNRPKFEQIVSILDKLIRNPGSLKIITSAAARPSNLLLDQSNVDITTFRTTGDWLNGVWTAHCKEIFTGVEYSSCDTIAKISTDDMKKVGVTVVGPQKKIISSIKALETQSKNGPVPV
Description: as §1

ERK1 = biological target: T5, ERK1 (Homo sapiens, UniProt P27361)
T5 construct: purchased ProQinase (Freiburg, Germany)
T5 sequence (P27361 whole entry): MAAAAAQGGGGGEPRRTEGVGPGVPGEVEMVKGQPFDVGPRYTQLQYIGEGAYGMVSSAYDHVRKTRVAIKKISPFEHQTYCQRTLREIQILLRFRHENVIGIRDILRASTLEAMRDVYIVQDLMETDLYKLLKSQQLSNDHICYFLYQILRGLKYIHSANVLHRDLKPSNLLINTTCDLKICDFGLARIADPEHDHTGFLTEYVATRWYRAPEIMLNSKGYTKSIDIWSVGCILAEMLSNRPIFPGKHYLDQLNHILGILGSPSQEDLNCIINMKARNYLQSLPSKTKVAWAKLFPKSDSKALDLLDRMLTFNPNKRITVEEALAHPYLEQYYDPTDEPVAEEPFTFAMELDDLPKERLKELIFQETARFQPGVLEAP
Description: as §1

MEK5 = biological target: T6, MEK5 (Homo sapiens, UniProt Q13163)
T6 construct: purchased ProQinase (Freiburg, Germany)
T6 sequence (Q13163 1-448): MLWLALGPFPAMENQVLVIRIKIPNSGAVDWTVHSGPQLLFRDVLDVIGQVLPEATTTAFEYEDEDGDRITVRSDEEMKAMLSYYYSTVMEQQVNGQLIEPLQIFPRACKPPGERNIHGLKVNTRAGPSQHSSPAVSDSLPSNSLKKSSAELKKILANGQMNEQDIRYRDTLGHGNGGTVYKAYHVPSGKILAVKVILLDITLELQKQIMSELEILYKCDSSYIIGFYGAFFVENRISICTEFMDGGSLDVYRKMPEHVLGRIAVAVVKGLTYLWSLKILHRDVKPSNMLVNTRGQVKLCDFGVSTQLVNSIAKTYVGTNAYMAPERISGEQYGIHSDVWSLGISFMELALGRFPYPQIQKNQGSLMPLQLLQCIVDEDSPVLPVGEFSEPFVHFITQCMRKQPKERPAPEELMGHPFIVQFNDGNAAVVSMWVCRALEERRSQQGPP
Description: as §1

PKCiota = biological target: T7, PKCiota (Homo sapiens, UniProt P41743)
T7 construct: purchased ProQinase (Freiburg, Germany)
T7 sequence (P41743 1-596): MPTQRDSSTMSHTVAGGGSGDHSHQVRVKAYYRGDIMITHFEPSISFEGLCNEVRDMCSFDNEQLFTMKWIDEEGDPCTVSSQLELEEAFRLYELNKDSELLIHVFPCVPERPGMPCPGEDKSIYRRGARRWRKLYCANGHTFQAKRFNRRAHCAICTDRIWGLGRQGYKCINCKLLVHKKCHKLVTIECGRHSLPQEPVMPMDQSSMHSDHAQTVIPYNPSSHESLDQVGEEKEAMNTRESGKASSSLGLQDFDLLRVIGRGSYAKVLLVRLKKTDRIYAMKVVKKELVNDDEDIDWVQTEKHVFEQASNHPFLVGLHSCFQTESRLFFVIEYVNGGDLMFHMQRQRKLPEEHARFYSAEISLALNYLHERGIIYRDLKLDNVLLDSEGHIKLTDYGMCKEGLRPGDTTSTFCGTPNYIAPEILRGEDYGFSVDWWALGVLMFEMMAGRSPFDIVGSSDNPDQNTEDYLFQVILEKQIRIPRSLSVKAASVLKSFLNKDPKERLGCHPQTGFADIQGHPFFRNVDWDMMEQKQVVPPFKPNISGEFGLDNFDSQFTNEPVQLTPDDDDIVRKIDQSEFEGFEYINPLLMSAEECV
Description: as §1

ROS = biological target: T8, ROS (Homo sapiens, UniProt P08922)
T8 construct: purchased ProQinase (Freiburg, Germany)
T8 sequence (P08922 28-2347): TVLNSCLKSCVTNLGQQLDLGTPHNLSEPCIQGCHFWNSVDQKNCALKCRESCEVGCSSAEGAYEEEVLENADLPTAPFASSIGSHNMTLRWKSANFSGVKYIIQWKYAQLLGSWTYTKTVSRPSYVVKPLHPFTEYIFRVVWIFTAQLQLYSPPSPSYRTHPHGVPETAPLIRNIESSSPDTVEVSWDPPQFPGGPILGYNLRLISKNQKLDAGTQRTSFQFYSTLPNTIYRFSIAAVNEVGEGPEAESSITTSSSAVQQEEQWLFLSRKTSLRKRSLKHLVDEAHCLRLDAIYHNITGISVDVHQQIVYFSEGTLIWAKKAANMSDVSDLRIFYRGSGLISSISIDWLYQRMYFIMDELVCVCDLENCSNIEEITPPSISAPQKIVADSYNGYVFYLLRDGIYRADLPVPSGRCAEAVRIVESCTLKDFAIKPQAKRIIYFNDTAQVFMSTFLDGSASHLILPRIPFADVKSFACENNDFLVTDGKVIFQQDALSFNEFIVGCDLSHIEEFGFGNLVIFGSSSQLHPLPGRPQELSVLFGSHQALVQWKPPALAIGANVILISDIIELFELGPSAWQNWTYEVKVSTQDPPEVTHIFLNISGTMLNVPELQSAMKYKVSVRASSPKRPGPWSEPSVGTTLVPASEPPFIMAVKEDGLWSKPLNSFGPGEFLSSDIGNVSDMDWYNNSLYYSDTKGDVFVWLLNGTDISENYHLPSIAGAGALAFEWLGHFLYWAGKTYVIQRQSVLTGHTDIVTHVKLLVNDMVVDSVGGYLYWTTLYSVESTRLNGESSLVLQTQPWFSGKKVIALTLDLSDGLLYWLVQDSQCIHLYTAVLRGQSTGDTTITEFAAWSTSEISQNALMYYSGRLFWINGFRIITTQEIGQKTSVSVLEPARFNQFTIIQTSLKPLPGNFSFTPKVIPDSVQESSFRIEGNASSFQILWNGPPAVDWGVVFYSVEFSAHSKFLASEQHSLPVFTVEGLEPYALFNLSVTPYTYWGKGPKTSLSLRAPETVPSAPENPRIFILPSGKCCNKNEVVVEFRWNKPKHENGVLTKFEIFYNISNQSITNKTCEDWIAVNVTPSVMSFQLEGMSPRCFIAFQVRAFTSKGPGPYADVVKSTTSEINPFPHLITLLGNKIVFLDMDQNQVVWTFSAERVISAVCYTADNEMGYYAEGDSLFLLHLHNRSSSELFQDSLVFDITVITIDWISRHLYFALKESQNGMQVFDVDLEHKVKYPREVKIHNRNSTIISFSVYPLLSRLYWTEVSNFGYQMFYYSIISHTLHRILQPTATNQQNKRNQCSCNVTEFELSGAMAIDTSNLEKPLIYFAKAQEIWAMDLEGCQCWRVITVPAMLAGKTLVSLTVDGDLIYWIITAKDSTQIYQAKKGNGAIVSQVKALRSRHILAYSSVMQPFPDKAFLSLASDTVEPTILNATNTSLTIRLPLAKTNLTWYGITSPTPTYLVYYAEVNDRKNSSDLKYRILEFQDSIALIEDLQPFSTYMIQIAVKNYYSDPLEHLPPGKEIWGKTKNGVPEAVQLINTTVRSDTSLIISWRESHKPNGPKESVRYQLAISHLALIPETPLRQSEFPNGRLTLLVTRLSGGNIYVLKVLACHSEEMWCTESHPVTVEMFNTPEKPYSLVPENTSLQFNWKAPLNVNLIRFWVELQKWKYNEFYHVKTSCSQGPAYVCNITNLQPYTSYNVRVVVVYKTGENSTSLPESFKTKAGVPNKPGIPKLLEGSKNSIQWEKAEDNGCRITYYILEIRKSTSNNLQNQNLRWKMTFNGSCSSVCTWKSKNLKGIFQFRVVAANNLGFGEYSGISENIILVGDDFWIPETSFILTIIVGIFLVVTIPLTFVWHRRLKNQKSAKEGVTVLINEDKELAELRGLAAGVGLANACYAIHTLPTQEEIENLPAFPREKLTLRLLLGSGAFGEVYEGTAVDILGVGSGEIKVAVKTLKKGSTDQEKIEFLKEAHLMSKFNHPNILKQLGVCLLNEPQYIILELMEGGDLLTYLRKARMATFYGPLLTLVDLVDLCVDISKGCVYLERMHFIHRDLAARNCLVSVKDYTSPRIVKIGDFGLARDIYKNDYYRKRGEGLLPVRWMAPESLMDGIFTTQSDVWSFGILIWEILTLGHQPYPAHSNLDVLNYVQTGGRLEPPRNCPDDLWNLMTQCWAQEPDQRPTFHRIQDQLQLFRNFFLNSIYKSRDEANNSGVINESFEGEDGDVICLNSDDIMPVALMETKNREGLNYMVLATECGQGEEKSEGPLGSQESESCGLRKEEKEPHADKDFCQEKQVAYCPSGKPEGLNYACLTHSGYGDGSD
Description: as §1

TGFBR2 = biological target: T9, TGFBR2 (Homo sapiens, UniProt P37173)
T9 construct: purchased ProQinase (Freiburg, Germany)
T9 sequence (P37173 23-567): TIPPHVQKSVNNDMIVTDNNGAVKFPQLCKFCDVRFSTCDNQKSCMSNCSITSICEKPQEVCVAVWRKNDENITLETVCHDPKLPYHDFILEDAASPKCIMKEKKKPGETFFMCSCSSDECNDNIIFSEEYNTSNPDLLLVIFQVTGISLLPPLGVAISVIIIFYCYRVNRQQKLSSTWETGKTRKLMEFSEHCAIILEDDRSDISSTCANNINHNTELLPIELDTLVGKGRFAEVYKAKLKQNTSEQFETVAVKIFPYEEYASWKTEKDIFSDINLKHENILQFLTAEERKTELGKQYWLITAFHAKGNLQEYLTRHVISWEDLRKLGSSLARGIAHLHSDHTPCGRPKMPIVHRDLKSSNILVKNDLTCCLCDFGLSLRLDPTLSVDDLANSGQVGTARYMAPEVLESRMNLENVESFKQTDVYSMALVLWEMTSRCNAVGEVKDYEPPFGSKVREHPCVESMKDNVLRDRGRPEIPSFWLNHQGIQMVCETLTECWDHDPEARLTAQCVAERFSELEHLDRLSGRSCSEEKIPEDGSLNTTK
Description: as §1

TSSK1 = biological target: T10, TSSK1 (Homo sapiens, UniProt Q9BXA7)
T10 construct: purchased ProQinase (Freiburg, Germany)
T10 sequence (Q9BXA7 1-367): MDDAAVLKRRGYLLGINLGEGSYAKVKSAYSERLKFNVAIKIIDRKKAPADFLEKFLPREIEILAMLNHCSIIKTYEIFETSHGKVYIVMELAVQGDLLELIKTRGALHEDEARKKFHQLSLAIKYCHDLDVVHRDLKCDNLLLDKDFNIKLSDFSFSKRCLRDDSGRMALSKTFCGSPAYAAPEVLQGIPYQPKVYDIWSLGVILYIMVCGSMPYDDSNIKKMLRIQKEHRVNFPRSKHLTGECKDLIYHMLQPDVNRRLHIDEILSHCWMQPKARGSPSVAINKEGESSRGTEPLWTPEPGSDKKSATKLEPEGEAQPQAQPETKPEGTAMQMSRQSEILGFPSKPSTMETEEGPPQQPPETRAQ
Description: as §1

T1 sequence (P42684 whole entry): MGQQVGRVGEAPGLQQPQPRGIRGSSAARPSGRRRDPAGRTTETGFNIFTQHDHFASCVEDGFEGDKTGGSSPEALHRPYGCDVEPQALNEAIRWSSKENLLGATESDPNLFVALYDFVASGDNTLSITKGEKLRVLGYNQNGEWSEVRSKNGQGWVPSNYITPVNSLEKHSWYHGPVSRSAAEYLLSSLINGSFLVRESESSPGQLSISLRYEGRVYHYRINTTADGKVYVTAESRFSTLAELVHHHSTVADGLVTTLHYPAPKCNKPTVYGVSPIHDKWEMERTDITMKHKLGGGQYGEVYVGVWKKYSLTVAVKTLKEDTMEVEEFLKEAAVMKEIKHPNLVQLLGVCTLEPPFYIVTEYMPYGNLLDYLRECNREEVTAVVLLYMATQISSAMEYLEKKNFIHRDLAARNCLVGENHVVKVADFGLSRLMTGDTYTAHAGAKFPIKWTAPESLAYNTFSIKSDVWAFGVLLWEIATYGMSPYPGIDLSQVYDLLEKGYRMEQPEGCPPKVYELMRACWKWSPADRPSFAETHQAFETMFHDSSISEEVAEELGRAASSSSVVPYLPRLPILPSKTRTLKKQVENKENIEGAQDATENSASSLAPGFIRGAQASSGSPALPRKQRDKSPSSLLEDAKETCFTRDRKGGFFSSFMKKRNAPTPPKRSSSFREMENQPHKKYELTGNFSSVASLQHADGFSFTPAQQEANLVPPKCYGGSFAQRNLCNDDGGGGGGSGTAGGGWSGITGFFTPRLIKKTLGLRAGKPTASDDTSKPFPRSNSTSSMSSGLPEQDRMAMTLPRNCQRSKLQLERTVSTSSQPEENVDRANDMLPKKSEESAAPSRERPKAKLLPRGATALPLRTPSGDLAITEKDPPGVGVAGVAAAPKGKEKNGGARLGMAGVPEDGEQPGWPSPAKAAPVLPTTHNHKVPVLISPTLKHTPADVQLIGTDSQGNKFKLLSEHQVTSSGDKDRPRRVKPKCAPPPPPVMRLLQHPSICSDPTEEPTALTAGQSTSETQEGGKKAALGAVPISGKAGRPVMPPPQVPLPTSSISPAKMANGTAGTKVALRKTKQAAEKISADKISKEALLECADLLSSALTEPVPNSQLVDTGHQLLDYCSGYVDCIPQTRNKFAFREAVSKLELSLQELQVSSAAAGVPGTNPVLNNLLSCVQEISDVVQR
T2 sequence (Q8N5S9 whole entry): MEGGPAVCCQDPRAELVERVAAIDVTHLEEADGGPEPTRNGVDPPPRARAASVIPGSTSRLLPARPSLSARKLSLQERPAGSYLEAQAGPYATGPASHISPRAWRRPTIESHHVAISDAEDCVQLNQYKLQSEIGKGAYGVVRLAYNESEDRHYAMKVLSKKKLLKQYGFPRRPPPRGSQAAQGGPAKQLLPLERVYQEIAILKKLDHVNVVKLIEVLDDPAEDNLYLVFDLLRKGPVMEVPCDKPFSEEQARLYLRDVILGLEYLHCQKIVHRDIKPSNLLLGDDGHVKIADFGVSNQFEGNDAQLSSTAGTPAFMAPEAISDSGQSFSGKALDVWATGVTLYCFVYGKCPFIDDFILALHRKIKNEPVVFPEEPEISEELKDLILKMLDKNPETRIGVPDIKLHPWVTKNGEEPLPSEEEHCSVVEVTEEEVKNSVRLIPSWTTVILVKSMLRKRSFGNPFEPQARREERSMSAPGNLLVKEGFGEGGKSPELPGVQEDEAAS

| SMILES | Residual activity (ABL2; 1.0E-05 M) | Residual activity (ABL2; 1.0E-06 M) | Residual activity (CAMKK1; 1.0E-05 M) | Residual activity (CAMKK1; 1.0E-06 M) | Residual activity (CDK19/CycC; 1.0E-05 M) | Residual activity (CDK19/CycC; 1.0E-06 M) | Residual activity (EPHA3; 1.0E-05 M) | Residual activity (EPHA3; 1.0E-06 M) | Residual activity (ERK1; 1.0E-05 M) | Residual activity (ERK1; 1.0E-06 M) | Residual activity (MEK5; 1.0E-05 M) | Residual activity (MEK5; 1.0E-06 M) | Residual activity (PKCiota; 1.0E-05 M) | Residual activity (PKCiota; 1.0E-06 M) | Residual activity (ROS; 1.0E-05 M) | Residual activity (ROS; 1.0E-06 M) | Residual activity (TGFBR2; 1.0E-05 M) | Residual activity (TGFBR2; 1.0E-06 M) | Residual activity (TSSK1; 1.0E-05 M) | Residual activity (TSSK1; 1.0E-06 M) |
| --- | --- | --- | --- | --- | --- | --- | --- | --- | --- | --- | --- | --- | --- | --- | --- | --- | --- | --- | --- | --- |
| O=C(Nc1ccc(F)c(Nc2ccc3c(c2)CCCCC3=O)c1)c1cccc(F)c1 [Compound 109] | 92 % of control | 95 % of control | 75 % of control | 77 % of control | 74 % of control | 83 % of control | 94 % of control | 92 % of control | 102 % of control | 100 % of control | 94 % of control | 104 % of control | 77 % of control | 82 % of control | 85 % of control | 97 % of control | 79 % of control | 82 % of control | 102 % of control | 102 % of control |
| O=C(Cc1ccccc1)Nc1ccc(F)c(Nc2ccc3c(c2)CCCCC3=O)c1 [Compound 100] | 93 % of control | 97 % of control | 80 % of control | 78 % of control | 77 % of control | 81 % of control | 86 % of control | 96 % of control | 99 % of control | 99 % of control | 114 % of control | 118 % of control | 71 % of control | 94 % of control | 91 % of control | 99 % of control | 74 % of control | 79 % of control | 105 % of control | 112 % of control |
